Assay type in all cases: cell-based
In experiment [1] the target is T1, human muscarinic M4 receptor (Homo sapiens, UniProt P08173).
T1 construct: expressed in transfected cells
T1 sequence (P08173 1-479): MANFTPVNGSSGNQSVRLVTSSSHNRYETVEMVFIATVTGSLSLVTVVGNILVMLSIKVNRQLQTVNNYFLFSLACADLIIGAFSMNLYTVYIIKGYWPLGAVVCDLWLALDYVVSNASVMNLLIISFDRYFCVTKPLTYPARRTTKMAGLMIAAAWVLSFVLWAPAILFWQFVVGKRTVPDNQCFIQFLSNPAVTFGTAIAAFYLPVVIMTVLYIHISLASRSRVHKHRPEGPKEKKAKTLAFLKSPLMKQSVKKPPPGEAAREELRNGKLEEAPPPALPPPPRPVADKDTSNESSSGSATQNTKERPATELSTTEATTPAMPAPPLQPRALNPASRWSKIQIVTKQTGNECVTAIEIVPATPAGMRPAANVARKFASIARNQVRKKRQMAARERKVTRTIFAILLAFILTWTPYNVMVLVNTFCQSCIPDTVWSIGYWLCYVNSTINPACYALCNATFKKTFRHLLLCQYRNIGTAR
The experiment is described as follows: Alphascreen Surefire phospho-ERK1/2 functional assay, M4. To be noted: for EC50: CHO cells stably expressing human M4, agonist 5 min, 37° C., read-out: pEC50 M4 (converted); for Emax: CHO, read-out: % Emax cf. ACh, M4. Here is the method:
(§1) ERK1/2 phosphorylation is a downstream consequence of both Gq/11 and Gi/o protein coupled receptor activation, making it highly suitable for the assessment of M1, M3 (Gq/11 coupled) and M2, M4 receptors (Gi/o coupled), rather than using different assay formats for different receptor subtypes. CHO cells stably expressing the human muscarinic M1, M2, M3 or M4 receptor were plated (25K/well) onto 96-well tissue culture plates in MEM-alpha+10% dialysed FBS. Once adhered, cells were serum-starved overnight. Agonist stimulation was performed by the addition of 5 μL agonist to the cells for 5 min (37° C.). Media was removed and 50 μL of lysis buffer added. After 15 min, a 4 μL sample was transferred to 384-well plate and 7 μL of detection mixture added. Plates were incubated for 2 h with gentle agitation in the dark and then read on a PHERAstar plate reader.
(§2) pEC50 and Emax figures were calculated from the resulting data for each receptor subtype.
On the technique in general: Bead proximity is the source of the signal in Alpha formats.

Experiment [2] deals with T2, human muscarinic M2 receptor (Homo sapiens, UniProt P08172).
T2 sequence (P08172 1-466): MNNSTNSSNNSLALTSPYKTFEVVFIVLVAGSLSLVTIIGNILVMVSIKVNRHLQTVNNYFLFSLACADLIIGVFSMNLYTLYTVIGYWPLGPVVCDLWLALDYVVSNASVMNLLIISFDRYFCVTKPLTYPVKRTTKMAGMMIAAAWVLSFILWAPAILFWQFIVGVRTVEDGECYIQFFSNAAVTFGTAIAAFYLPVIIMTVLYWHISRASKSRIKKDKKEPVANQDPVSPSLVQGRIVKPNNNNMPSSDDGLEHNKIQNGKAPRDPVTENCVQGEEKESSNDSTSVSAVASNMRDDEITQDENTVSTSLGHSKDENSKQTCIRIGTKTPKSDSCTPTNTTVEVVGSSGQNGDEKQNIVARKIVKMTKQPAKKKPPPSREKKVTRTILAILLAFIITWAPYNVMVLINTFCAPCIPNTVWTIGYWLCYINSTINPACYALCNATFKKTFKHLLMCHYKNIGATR
The experiment in a line: Alphascreen Surefire phospho-ERK1/2 functional assay, M2. To be noted: for EC50: CHO cells stably expressing human M2, agonist 5 min, 37° C., read-out: pEC50 M2 (converted); for Emax: CHO, read-out: % Emax cf. ACh, M2. Here is the method:
as §1, §2

The target in experiment [3] is T3, human muscarinic M1 receptor (Homo sapiens, UniProt P11229).
T3 sequence (P11229 1-460): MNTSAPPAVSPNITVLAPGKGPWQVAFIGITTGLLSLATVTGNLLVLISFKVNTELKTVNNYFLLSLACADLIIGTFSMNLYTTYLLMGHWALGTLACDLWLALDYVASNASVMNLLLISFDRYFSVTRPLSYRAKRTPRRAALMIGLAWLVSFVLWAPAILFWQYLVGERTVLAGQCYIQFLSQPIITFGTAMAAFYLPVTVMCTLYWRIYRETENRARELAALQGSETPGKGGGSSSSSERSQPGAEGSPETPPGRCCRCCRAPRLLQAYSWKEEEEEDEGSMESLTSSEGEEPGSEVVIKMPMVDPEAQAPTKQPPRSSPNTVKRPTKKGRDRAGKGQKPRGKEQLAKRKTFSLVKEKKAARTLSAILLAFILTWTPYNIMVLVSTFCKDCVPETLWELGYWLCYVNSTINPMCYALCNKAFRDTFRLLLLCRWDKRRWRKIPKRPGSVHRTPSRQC
The experiment in a line: Alphascreen Surefire phospho-ERK1/2 functional assay, M1. The note with it: for EC50: CHO cells stably expressing human M1, agonist 5 min, 37° C., read-out: pEC50 M1 (converted); for Emax: CHO, read-out: % Emax cf. ACh, M1. Here is the method: as §1, §2

Experiment [4] deals with T4, human muscarinic M3 receptor (Homo sapiens, UniProt P20309).
T4 construct: expressed in transfected cells
T4 sequence (P20309 whole entry): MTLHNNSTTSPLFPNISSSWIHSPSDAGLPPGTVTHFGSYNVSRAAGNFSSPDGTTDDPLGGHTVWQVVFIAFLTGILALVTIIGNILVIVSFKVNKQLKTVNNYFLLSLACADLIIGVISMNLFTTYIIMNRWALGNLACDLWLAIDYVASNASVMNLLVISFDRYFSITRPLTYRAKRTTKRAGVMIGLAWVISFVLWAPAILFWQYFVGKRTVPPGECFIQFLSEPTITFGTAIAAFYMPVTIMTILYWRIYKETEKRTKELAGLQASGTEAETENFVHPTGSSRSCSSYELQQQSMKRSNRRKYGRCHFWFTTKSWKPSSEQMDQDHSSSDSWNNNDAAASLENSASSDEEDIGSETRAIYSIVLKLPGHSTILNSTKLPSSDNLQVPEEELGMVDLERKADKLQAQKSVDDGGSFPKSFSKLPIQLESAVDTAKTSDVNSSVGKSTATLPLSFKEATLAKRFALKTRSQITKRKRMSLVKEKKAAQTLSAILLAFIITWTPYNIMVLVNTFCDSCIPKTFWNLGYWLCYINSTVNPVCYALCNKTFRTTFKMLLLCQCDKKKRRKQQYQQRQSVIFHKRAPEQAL
The experiment in a line: Alphascreen Surefire phospho-ERK1/2 functional assay, M3. The note with it: for EC50: CHO cells stably expressing human M3, agonist 5 min, 37° C., read-out: pEC50 M3 (converted); for Emax: CHO, read-out: % Emax cf. ACh, M3. Here is the method:
as §1, §2

As usually defined, the Emax is the maximal effect, on the per cent scale that the assay sets. Turning to `O=C1CCc2ccccc2N1CCCN1CCC(CCOC2=NOCC2)CC1` [Example 1, 1-(3-(4-(2-((4,5-dihydroisoxazol-3-yl)oxy)ethyl)piperidin-1-yl)propyl)-3,4-dihydroquinolin-2(1H)-one], the EC50 in experiment [1] was greater than 20 µM; in experiment [2] it was greater than 20 µM; in experiment [3], 0.0631 µM; in experiment [4] it was greater than 20 µM. Besides, the Emax in experiment [1] was 19%; in experiment [2], 1%; in experiment [3] it was 92%; in experiment [4] it was 0%.

Turning to `O=C1CCc2ccccc2N1CCCN1CCC(CCCCOC2=NOCC2)CC1` [Example 2, 1-(3-(4-(4-((4,5-dihydroisoxazol-3-yl)oxy)butyl)piperidin-1-yl)propyl)-3,4-dihydroquinolin-2(1H)-one], the EC50 in experiment [1] is greater than 20 µM; in experiment [2] it was greater than 20 µM; in experiment [3] it was 0.00316 µM; in experiment [4] it was greater than 20 µM. Also, the Emax in experiment [1] stood at 10%; in experiment [2], 3%; in experiment [3], 98%; in experiment [4] it was 7%.

`O=C1CCc2ccccc2N1CCCN1[C@@H]2CC[C@H]1CC(CCOC1=NOCC1)C2` (stereo partly drawn) [Example 3, 1-(3-((1R,5S)-3-(2-((4,5-dihydroisoxazol-3-yl)oxy)ethyl)-8-azabicyclo[3.2.1]octan-8-yl)propyl)-3,4-dihydroquinolin-2(1H)-one]: the EC50 is greater than 20 µM in experiment [1] and 0.1 µM in experiment [3]. Further, the figures for the maximal response (Emax) in experiment [1] and in experiment [3] were 53% and 37%, respectively.

As for `O=C1CCc2ccccc2N1CCCN1C2CCC1CC(CCCOC1=NOCC1)C2` (centres unmarked) [Example 4, 1-(3-(3-(3-((4,5-dihydroisoxazol-3-yl)oxy)propyl)-8-azabicyclo[3.2.1]octan-8-yl)propyl)-3,4-dihydroquinolin-2(1H)-one], the EC50 in experiment [1] is greater than 20 µM; in experiment [2] it was greater than 20 µM; in experiment [3], 0.00316 µM; in experiment [4] it was greater than 20 µM. In addition, the maximum response (Emax) in experiment [1] is 11%; in experiment [2] it was 29%; in experiment [3], 71%; in experiment [4] it was 0%.

In the case of `O=C1CCc2ccccc2N1CCCN1[C@@H]2CC[C@H]1C[C@@H](OCCOC1=NOCC1)C2` [Example 5, 1-(3-(3-(2-((4,5-dihydroisoxazol-3-yl)oxy)ethoxy)-8-azabicyclo[3.2.1]octan-8-yl)propyl)-3,4-dihydroquinolin-2(1H)-one], the EC50 in experiment [1] was greater than 20 µM; in experiment [2], greater than 20 µM; in experiment [3] it was 0.00631 µM; in experiment [4], greater than 20 µM. Moreover, the maximal effect (Emax) in experiment [1] is 19%; in experiment [2], 16%; in experiment [3], 62%; in experiment [4], 46%.

On to `O=C1CCc2ccccc2N1CCCN1[C@@H]2CC[C@H]1CN(CCCOC1=NOCC1)C2` [Example 6, 1-(3-((1R,5S)-3-(3-((4,5-dihydroisoxazol-3-yl)oxy)propyl)-3,8-diazabicyclo[3.2.1]octan-8-yl)propyl)-3,4-dihydroquinolin-2(1H)-one], for which the EC50 in experiment [1] was greater than 20 µM; in experiment [2] it was greater than 0.2 µM; in experiment [3], less than 0.000631 µM; in experiment [4] it was greater than 0.2 µM. The maximal effect (Emax) in experiment [1] came to 32%; in experiment [2], 6%; in experiment [3], 103%; in experiment [4], 0%.

On to `O=C1COc2cc(F)ccc2N1CCCN1CCC(CCOC2=NOCC2)CC1` [Example 7, 4-(3-(4-(2-((4,5-dihydroisoxazol-3-yl)oxy)ethyl)piperidin-1-yl)propyl)-7-fluoro-2H-benzo[b][1,4]oxazin-3(4H)-one], for which the EC50 was greater than 20 µM in experiment [1] and 0.251 µM in experiment [3]. For the same compound, the maximal effect (Emax) in experiment [1] was found to be 8%; in experiment [3], 62%.

Regarding `O=C1COc2cc(F)ccc2N1CCCN1CCC(CCCCOC2=NOCC2)CC1` [Example 8, 4-(3-(4-(4-((4,5-dihydroisoxazol-3-yl)oxy)butyl)piperidin-1-yl)propyl)-7-fluoro-2H-benzo[b][1,4]oxazin-3(4H)-one], the EC50 in experiment [1] was 0.0251 µM; in experiment [2], greater than 20 µM; in experiment [3], 0.01 µM; in experiment [4] it was greater than 20 µM. Also, the Emax worked out at 25% in experiment [1], 4% in experiment [2], 102% in experiment [3] and 3% in experiment [4].

For the compound `c1ccc2c(c1)CCCN2CCCN1C2CCC1CC(CCCOC1=NOCC1)C2` (centres unmarked) [Example 9, 3-(3-(8-(3-(3,4-dihydroquinolin-1(2H)-yl)propyl)-8-azabicyclo[3.2.1]octan-3-yl)propoxy)-4,5-dihydroisoxazole], the EC50 in experiment [1] was greater than 20 µM; in experiment [2], greater than 20 µM; in experiment [3], 0.0251 µM; in experiment [4], greater than 20 µM. In addition, the maximal response (Emax) is 16% in experiment [1], 28% in experiment [2], 40% in experiment [3] and 21% in experiment [4].

On to `O=C1CCON1CCC1CCN(CCCN2C(=O)CCc3ccccc32)CC1` [Example 10, 2-(2-(1-(3-(2-oxo-3,4-dihydroquinolin-1(2H)-yl)propyl)piperidin-4-yl)ethyl)isoxazolidin-3-one], for which, in experiment [1], the EC50 is greater than 20 µM and the Emax worked out at 13%. Also, in experiment [3], the EC50 was 0.794 µM and the maximal effect (Emax) stood at 73%.

Consider `O=C1CCON1CCCCC1CCN(CCCN2C(=O)CCc3ccccc32)CC1` [Example 11, 2-(4-(1-(3-(2-oxo-3,4-dihydroquinolin-1(2H)-yl)propyl)piperidin-4-yl)butyl)isoxazolidin-3-one], for which the EC50 in experiment [1] was greater than 20 µM; in experiment [2], greater than 20 µM; in experiment [3] it was 0.01 µM; in experiment [4], greater than 20 µM. The Emax in experiment [1] amounted to 10%; in experiment [2] it was 4%; in experiment [3], 92%; in experiment [4], 7%.

Turning to `O=C1CCON1CCCCCC1CCN(CCCN2C(=O)CCc3ccccc32)CC1` [Example 12, 2-(5-(1-(3-(2-oxo-3,4-dihydroquinolin-1(2H)-yl)propyl)piperidin-4-yl)pentyl)isoxazolidin-3-one], the EC50 in experiment [1] is greater than 20 µM; in experiment [2] it was greater than 20 µM; in experiment [3], 0.02 µM; in experiment [4], greater than 20 µM. Also, the maximum response (Emax) in experiment [1] was determined as 5%; in experiment [2] it was 2%; in experiment [3], 41%; in experiment [4], 1%.

Regarding `O=C1CCON1CCCC1C[C@@H]2CC[C@@H](C1)N2CCCN1C(=O)CCc2ccccc21` (stereo partly drawn) [Example 13, 2-(3-((1S,5S)-8-(3-(2-oxo-3,4-dihydroquinolin-1(2H)-yl)propyl)-8-azabicyclo[3.2.1]octan-3-yl)propyl)isoxazolidin-3-one], the EC50 was greater than 20 µM in experiment [1], greater than 20 µM in experiment [2], 0.1 µM in experiment [3] and greater than 20 µM in experiment [4]. The Emax in experiment [1] stood at 12%; in experiment [2] it was 9%; in experiment [3], 62%; in experiment [4], 8%.

These data come from US12215099B2, “Quinolinone and benzoxazine derivatives as muscarinic M1 and/or M4 receptor agonists” (Nxera Pharma UK Limited, priority 2018, dated 2025).
